This is an account of results in patent US6162810A, “Inadone and tetralone compounds for inhibiting cell proliferation” (The Regents of the University of California, priority 1998, dated 2000).

For one data set, the system named is MCF-7. The data set can be described thus: Growth inhibition of MCF-7 (wild type). In kind it is cell-based. The settings on record: Homo sapiens, MCF7, ±1 SD, n>5.
Data set [1] deals with HL-60/ADR and MDF-7/ADR cells. As to the kind of experiment: MTT assay, visual comparison of cells with and without MDR (FIGS. 1 and 2). In kind it is cell-based, human. The settings on record: 3 days.
In a further data set the test system is MES-SA. As to the kind of experiment: Growth inhibition of MES-SA (wild type). The settings on record: Homo sapiens, ±1 SD, n>5. The data set is classed as cell-based.
In another data set the test system is MDA-MB-321. As to the kind of experiment: Growth inhibition of MDA-MB-321 (wild type). In kind it is cell-based. The settings on record: Homo sapiens, ±1 SD, n>5.
In a further data set the test system is KB-GRC-1 and MV522/Q6. As to the kind of experiment: MTT proliferation assay of mdr1 overexpressing transfectomas. The data set is classed as cell-based, human. The settings on record: 72 h.
A further data set relates to MV522. As to the kind of experiment: Growth inhibition of MV522 (wild type). In kind it is cell-based. The settings on record: Homo sapiens, ±1 SD, n>5.
For another data set, the system named is HL-60/ADR cells. The data set can be described thus: Apoptosis of HL-60/ADR cells (FACS). In kind it is cell-based, human. How it is done:
FACS analysis was performed to determine the influence of the TB compounds of the invention on growth cycling of cells (the analysis was performed on harvested cells, fixed in ice-cold 70% ethanol solution, then treated with 100 μg/ml of RNAse A and stained with 50 μg/ml propidium iodide for 1 h at 37° C. DNA content of the cells was analyzed by flow cytometry (Becton Dickinson FACScalibur), and the cell cycle distribution was calculated with the program ModFit LT 2.0 (Verity Software)).
First, the stage at which the TB compounds of the invention arrest growth of HL-60 and HL-60/ADR cells was determined by FACS analysis and caspase-3 activation as described above.

The test system of a further data set is CEM. As to the kind of experiment: Growth inhibition of CEM (wild type). In kind it is cell-based. The settings on record: Homo sapiens, CCRF-CEM, ±1 SD, n>5.
Another data set deals with HL-60. The data set can be described thus: Growth inhibition of HL-60 (wild type). The data set is classed as cell-based. The settings on record: Homo sapiens, ±1 SD, n>5.
For a further data set, the system named is MCF-7/ADR. The data set can be described thus: Growth inhibition of MCF-7/ADR (MDR). The data set is classed as cell-based. The settings on record: Homo sapiens, NCI/ADR-RES, ±1 SD, n>5.
Data set [2] concerns tubulin (colchicine-binding site). As to the kind of experiment: Inhibition of [3H]colchicine binding to tubulin. Also on record: species or system bovine. The settings on record: 5 μM compound, 5 μM [3H]colchicine, 1 μM tubulin, n=4. How it is done: (§1) To evaluate the effects of the TB compounds of the invention on tubulin, bovine brain tubulin (2.2 mg/ml) was incubated in PEM80 (80 mM K-PIPES, 1 mM MgCl2, 1 mM EGTA) containing 10% glycerol and 2 mM GTP for 30 minutes at 37° C. in the presence or absence of 20 μg/ml nocodazole, 1 mM paclitaxel, or TB compound no. IK-178 at various concentrations. Tubulin polymer was resolved from monomer by sedimentation through a cushion of 60% glycerol in PEM80 at 70,000 rpm for 30 min at 37° C. in a Beckman TLA100 rotor. A fraction of the supernatant was removed for analysis, the cushion washed and then aspirated, and the pellet resuspended in SDS-PAGE sample buffer. Equal proportions of the supernatant and the pellet were then resolved by SDS-PAGE and tubulin visualized by staining with Coomassie blue.
(§2) The quantitative assessment of drug inhibition of tubulin polymerization and evaluation of inhibition of [^3 H]colchicine binding to tubulin were then performed. […] Samples were placed on ice and GTP (0.4 mM) was added. Reaction mixtures were transferred to 0° C. cuvettes in Gilford 250 spectrophotometers, baselines were establishes/d, and the temperature was jumped to 30° C. with electronic temperature controllers (about 60 sec). The IC^50 was defined as the drug concentration required to inhibit extent of assembly after a 20 min incubation. […]

Data set [3] deals with tubulin. As to the kind of experiment: Inhibition of [3H]vinblastine binding to tubulin. On the set-up: species or system bovine. The settings on record: single experiment. How it is done:
The TB compounds of the invention (as represented by TB compound IK-178), are nearly as potent as the strong tubulin assembly inhibitor, combretastatin A-4 (CS-A4). In particular, the GI^50 inhibitory concentration of CS-A4 was 1.2±0.03 μM (n=4), while that of TB compound IK-178 was 1.7±0.1 μM (n=3).

The next data set has as its system HL-60/ADR. The data set can be described thus: Growth inhibition of HL-60/ADR (MDR). The data set is classed as cell-based. The settings on record: Homo sapiens, HL60/ADR, ±1 SD, n>5.
In another data set the test system is KB-3-1. As to the kind of experiment: Growth inhibition of KB-3-1 (wild type). In kind it is cell-based. The settings on record: Homo sapiens, ±1 SD, n>5.
In the next data set the test system is MCF-7 wild type cells. The data set can be described thus: Cell death of stationary phase MCF-7 wild type cells (FACS). In kind it is cell-based, human. The settings on record: MCF-7 wild type (parental) cells.
A further data set concerns MCF-7/ADR cells. The data set can be described thus: Cell death of stationary phase MCF-7/ADR cells (FACS). The data set is classed as cell-based, human. The settings on record: noncycling MCF-7/ADR cells.
The test system of another data set is MDA3-1/gp170. As to the kind of experiment: Growth inhibition of MDA3-1/gp170 (MDR). The settings on record: Homo sapiens, MDR1, ±1 SD, n>5. The data set is classed as cell-based.
Another data set relates to human cancer cell lines. As to the kind of experiment: Hollow fiber assay, in vivo growth inhibitory activity. Also on record: species or system human cells in mice.
Data set [4] deals with caspase-3 in MCF-7/ADR cells. The data set can be described thus: Caspase-3 activation in noncycling MCF-7/ADR cells. The data set is classed as cell-based, human. As for the experimental part:
Briefly, cell extracts were prepared from 5×10^6 cells in 100 μl of a lysis buffer (25 mM TrisHCl, pH 7.5, 150 mM KCl, 5 mM EDNA, 1% Nonidet P-40, 0.5% sodium deoxycholate, and 0.1% SDS) and maintained on ice for 10 min, followed by centrifugation at 14,000×g for 5 min at 4° C. The resulting supernatants were collected and frozen at -80° C. or used immediately. Lysates (20 μl, 5-10 μg of total protein) were mixed with 30 μl of assay buffer (50 mM PIPES, 50 mM KC, 5 mM EGTA, 2 mM MgCl2, 1 mM dithiothreitol (DTT), and 0.1 phenylmethanesulfonyl fluoride (PMSF)), containing 100 μM of Z-DEVD-AFC. Caspase-3-like protease activity was measured at 37° C. using a spectrofluorometric plate reader (Perkin-Elmer, LS50B) in the kinetic mode with excitation and emission wavelengths of 400 and 505 nm, respectively. Activity was measured by the release of […] from the synthetic substrate Z-DEVD-AFC (Biomol, Plymouth Meeting, Pa.).

The subject of another data set is MV522/Q6. As to the kind of experiment: Growth inhibition of MV522/Q6 (MDR). In kind it is cell-based. The settings on record: Homo sapiens, ±1 SD, n>5.
In the next data set the test system is caspase-3 in HL-60 cells. The data set can be described thus: Caspase-3 activation in HL-60 cells. In kind it is cell-based, human.
Data set [5] deals with tubulin. The data set can be described thus: Inhibition of tubulin assembly. The data set is classed as biochemical, bovine. The settings on record: 10 μM tubulin, 20 min incubation, 30° C.; read-out: GI50 inhibitory concentration (tubulin assembly). As for the experimental part:
as §1, §2

The next data set relates to MES-SA/DX5. As to the kind of experiment: Growth inhibition of MES-SA/DX5 (MDR). The data set is classed as cell-based. The settings on record: Homo sapiens, ±1 SD, n>5.
The next data set has as its system CEM/VLB100. As to the kind of experiment: Growth inhibition of CEM/VLB100 (MDR). In kind it is cell-based. The settings on record: Homo sapiens, ±1 SD, n>5.
In data set [6] the test system is caspase-3 in HL-60/ADR cells. As to the kind of experiment: Caspase-3 activation in HL-60/ADR cells. In kind it is cell-based, human. The settings on record: 10 nM.
For the next data set, the system named is KB-GRC-1. The data set can be described thus: Growth inhibition of KB-GRC-1 (MDR). The settings on record: Homo sapiens, MDR1, ±1 SD, n>5. The data set is classed as cell-based.
In data set [7] the test system is normal peripheral blood lymphocytes. As to the kind of experiment: Viability of normal peripheral blood lymphocytes. The data set is classed as cell-based. The settings on record: as much as 1000-fold higher concentrations, 72 hours.

Each structure is given as a SMILES string. “Also recorded” adds a separate entry of the source.

Method for human cancer cell lines: To screen the compounds of the invention for growth inhibitory activity, a hollow fiber assay test was performed according to the protocol established by the National Cancer Institute's Developmental Therapeutics Program.
Briefly, according to the National Cancer Institute, the hollow fiber assay is performed as follows:
For these assays, human tumor cells are cultivated in polyvinylidene fluoride (PVDF) hollow fibers, and a sample of each cell line is implanted into each of two physiologic compartments (intraperitoneal and subcutaneous) in mice. Each test mouse receives a total of 6 fibers (3 intraperitoneally and 3 subcutaneously) representing 3 distinct cancer cell lines. Three mice are treated with potential antitumor compounds at each of 2 test doses by the intraperitoneal route using a QD×4 treatment schedule. Vehicle controls consist of 6 mice receiving the compound diluent only. The fiber cultures are collected on the day following the last day of treatment. To assess anticancer effects, viable cell mass is determined for each of the cell lines using a formazan dye (MTT) conversion assay. From this, the % T/C can be calculated using the average optical density of the compound treated samples divided by the average optical density of the vehicle controls. In addition, the net increase in cell mass can be determined for each sample as a sample of fiber cultures are assessed for viable cell mass on the day of implantation into mice. Thus, the cytostatic and cytocidal capacities of the test compound can be assessed.
This represents a total of 4 experiments since each experiment contains 3 cell lines. The data are reported as % T/C for each of the 2 compound doses against each of the cell lines with separate values calculated for the intraperitoneal and subcutaneous samples.
Compounds are selected for further in vivo testing in standard subcutaneous xenograft models on the basis of several hollow fiber assay criteria. […] The intraperitoneal and subcutaneous samples are scored separately so that criteria (1) and (2) can be evaluated. […]

Consider `COc1cc2c(c(N)c1OC)C(=O)/C(=C\c1cc(C)c(O)c(C)c1)C2` [IK-178], for which the GI50 with MCF-7 was found to be 0.02 ± 0.005 µM; with MES-SA it was 0.085 ± 0.006 µM; in the data set on MDA-MB-321, 0.01 ± 0.003 µM; in the data set with MV522 it was 0.013 ± 0.003 µM; in the data set on CEM it was 0.012 ± 0.002 µM; in the data set with HL-60, 0.04 ± 0.003 µM. The GI50 in the data set with MCF-7/ADR came to 0.004 ± 0.001 µM; with HL-60/ADR, 0.002 ± 0.0002 µM; in the data set on KB-3-1 it was 0.007 ± 0.002 µM; in the data set on MDA3-1/gp170, 0.025 ± 0.002 µM; in the data set on MV522/Q6, 0.008 ± 0.002 µM; with tubulin [5], 1.7 ± 0.1 µM. The figures for the GI50 with MES-SA/DX5, in the data set on CEM/VLB100 and in the data set with KB-GRC-1 were 0.012 ± 0.003 µM, 0.02 ± 0.001 µM and 0.007 ± 0.003 µM, respectively. Besides, the “sensitivity with acquisition of MDR” value in [1] is “retained, and even enhanced”. In addition, the “sensitivity of transfectomas overexpressing mdr1” value in the data set with KB-GRC-1 and MV522/Q6 is “retained complete sensitivity”. In the data set on HL-60/ADR cells, the apoptosis entry was “became apoptotic; also recorded: did induce”. Also, the “inhibition of [3H]colchicine binding” value in [2] stood at 95±2%. The “inhibition of [3H]vinblastine binding to tubulin” value in the data set with tubulin [3] is listed as “Neither agent inhibited”. The “cell death / apoptosis” value is “growth-arrested but did not show any apoptotic features” in the data set with MCF-7 wild type cells, “appearance of an apoptotic sub-G0 /G1 peak” in the data set on MCF-7/ADR cells and “die following treatment” with MCF-7/ADR cells (listed as indanocine). In addition, the “TOTAL SCORE (IP + SC)” value with human cancer cell lines (IP + SC) came out at 24. The “IP SCORE” value with human cancer cell lines (intraperitoneal fibers, intraperitoneal treatment QD×4) was found to be 18. In addition, the “SC SCORE” value with human cancer cell lines (subcutaneous fibers, intraperitoneal treatment QD×4) is reported as 6. The “activation of caspase-3” value in [4] is reported as “activation of caspase-3”. Also, the results for the caspase-3 activity entry (with caspase-3 in HL-60 cells (HL-60 cells); in data set [6] (compared with untreated cells)) were “only a slight increase” and “time-dependent increase in caspase-3 activity”, respectively. The “caspase-3 activity relative to the level in the multidrug resistant cells” value in the data set with caspase-3 in HL-60 cells (HL-60 wild type vs HL-60/ADR) is “about a quarter”. The “time of maximum caspase-3 activity” value in [6] amounted to 24 h. In addition, in data set [7], the loss of viability entry was “no loss of viability”.

On to `COc1ccc(/C=C\c2cc(OC)c(OC)c(OC)c2)cc1O` [CS-A4, combretastatin A-4, reference compound], for which the “inhibition of [3H]vinblastine binding to tubulin” value with tubulin [3] was “Neither agent inhibited”. In addition, the GI50 in the data set on tubulin [5] amounted to 1.2 ± 0.03 µM.
